Reference: US20030203969A1, “Pharmaceutically active aromatic guanylhydrazones” (priority 2000, published 2003)

What was measured:
HHV8 = experiment: HHV-8 replication in TPA-induced BCBL-1 cells (TaqMan PCR); type: cell-based, Human herpesvirus 8
Procedure: The human BCBL-1 cell line is available through the AIDS Reference and Reagent Program (Cat.No. 3233). This cell line was derived from a body cavity-based lymphoma latently infected with HHV-8. Culturing these cells in the presence of phorbol ester induces a lytic infection cycle, resulting in the release of viral particles into the medium. Compound efficacy in this proposed assay is determined using TaqMan PCR technology, and compound toxicity is measured by addition of Promega's Cell Titer Aqueous One Solution (metabolic dye).
7. BCBL-1 cells will be counted by the trypan blue dye exclusion method, and the cell count/ml will be determined. Cells will be pelleted by centrifugation and washed once with PBS to minimize the basal level of virus released from untreated cells which spontaneously enter the lytic cycle and release virus.
8. Cells will be resuspended in fresh media and adjusted to the appropriate cell density. Cells will then be plated in the interior wells of 96-well round-bottom microtiter plates in a volume of 50 μl per well.
9. […]
11. A standard curve prepared from known copy numbers of DNA isolated from BCBL-1 cells and amplified will be run with each plate in order to quantitate the DNA copy number in each original sample. The efficacy of the compound will be determined by comparing DNA copy numbers from test wells with those of control wells.

P3HR-1 cells = experiment: Compound toxicity in P3HR-1 cells (Cell Titer Aqueous One); type: cell-based, human; settings: P3HR1 cells; read-out: TC50 (the source's name)
Procedure: Human P3HR-1 cells are latently infected with EBV. Culturing these cells in the presence of phorbol ester induces a lytic infection cycle, resulting in stimulation of viral replication within the cells. Compound efficacy in this assay is determined using TaqMan PCR technology, and compound toxicity is measured by addition of Promega's Cell Titer Aqueous One Solution (metabolic dye).
6. Duplicate plates are set up plating media in place of TPA for evaluation of compound toxicity.
6. Twenty micorliters of Cell Titer Aqueous One Solution (Promega) is added to each well of the toxicity plates. Plates are incubated at 37° C. in a humidified CO2 incubator for 4 hours or until sufficient color development has occurred. Plates are read on a VMax microtiter plate reader at a wavelength of 490/650 nm. Toxicity of the test compound is determined by comparing the optical density of test wells with that of control wells.

Vero cells = tested on: Vero cells
Procedure: A cytoprotection assay procedure using MTS is employed to evaluate compounds for antiviral activity against Respiratory Syncytial Virus (Long) in Vero (African green monkey, ATCC Cat. No. CCL-81) cells. The cells are pre-grown overnight at 37° C. (2×10^4/well in 96 well tissue culture plates) with 10% fetal Bovine serum containing Minimum Essential Medium. The positive control for the assay is Interferon-Gamma/Ribavirin. The infection medium contains reduced serum levels (2% FBS).
Using half log dilutions with high test starting at 100 μg/ml the drug dilutions are made and added to triplicate cultures in 0.1 ml volume and pre-titrated virus suspension is also added in 0.1 ml volume. […] CPE inhibition is determined by dye uptake procedure (Celltiter-MTS). […] The amount of soluble formazan produced by cellular reduction of the MTS is measured by the absorbance at 490 nm. The quantity of formazan product as measured by the amount of 490 nm absorbance is directly proportional to the number of living cells in the culture thus allowing the rapid quantitative analysis of the inhibition of virus-induced cell killing by the test substances. […]
The inhibitory drug concentration which reduces the viral replication by 95% (IC95) and the minimum drug concentration which inhibits cell growth by 95% (TC95) are calculated by using a regression analysis program for semilog curve fitting. […]

HIV = experiment: Relevant HIV cellular systems (summary statements); type: cell-based
From the text: Thus another aspect of the present invention is directed to the use of the compounds of the general formula (I) and/or pharmaceutically active salts as inhibitors of elF-5A activation and HIV replication.
The present invention therefore provides a genus of guanylhydrazone-substituted compounds that are useful as inhibitors of HIV-1, HIV-2, HTLV-I as well as for treating diseases associated with those viruses.

Question: With `CC(=NNC(=N)N)c1cc(NC(=O)CCCCCCCCC(=O)Nc2cc(C(C)=NNC(=N)N)cc(C(C)=NNC(=N)N)c2)cc(C(C)=NNC(=N)N)c1` [Compound 4, N,N′-bis (3,5-diacetylphenyl) decane diamide tetrakis (amidinohydrazone)] as the molecule, how does the Comments (HHV8; HHV8, BCBL-1 cells) read?
Answer: The Comments was “Active”.

Question: And the IC50 (HHV8; chronically HHV8-infected BCBL-1 cells)?
Answer: The IC50 was 2.3 µM.

Question: And the CC50 (P3HR-1 cells)?
Answer: Its CC50 is 21.8 µM.

Question: And the CC50 (Vero cells)?
Answer: The CC50 was 8.68 µM.

Question: What about the “TC95” value (Vero cells) of the same molecule?
Answer: The value was 30.20 µM.

Question: What about the “cellular toxicities at effective antiviral dosages” value (HIV; HIV cellular systems) of the same molecule?
Answer: Its value is “without apparent cellular toxicities”.

Question: And the “inhibition of HIV replication” value (HIV; T-cell-tropic, macrophage-tropic, primary patient isolates, multidrug-resistant HIV strains)?
Answer: The value was “submicromolar range”.
